Experimental data as given in patent US20200157195A1, “14-3-3 Antagonists for the Prevention and Treatment of Arthritis” (THE UNIVERSITY OF BRITISH COLUMBIA, priority 2007, published 2020).
The star is where a group is joined. Biotin = O=C1N[C@H]2[C@H](CS[C@H]2CCCCC(=O)*)N1

How the values were obtained:
[1] = system: MMP-1 expression in dermal fibroblasts induced by extracellular 14-3-3 protein; test: MMP-1 expression in dermal fibroblasts treated with KLCCM after R-18 pull-down of 14-3-3 proteins; assay type: cell-based
Source text: The KLCCM used in these experiments was taken from day 28 of cell transdifferentiation due to their high capacity of inducing MMP-1 expression in dermal fibroblasts (data not shown). […] As negative control, dermal fibroblasts treated with medium that was not conditioned (DMEM (49%), KSFM (49%) plus 2% FBS) were used (“Pull-down”−).

[2] = system: association of 14-3-3 proteins with Raf-1; conditions: Wang et al. 1999; cited from earlier work

Substance	reduction of MMP-1 expression ([1]; pre-treatment of KLCCM with biotinylated R-18 and avidin sepharose (pull-down), dermal fibroblasts, MMP-1/β-actin densitometry) [%]	blocking the association of 14-3-3 proteins with Raf-1 [2]	inhibition of induction of MMP-1 expression by extracellular 14-3-3 protein (in words) ([1]; FIG. 5 legend)
Biotin-PHCVPRDLSWLDLEANMCLP-OH (cysteine pairing not given here) [biotinylated R-18]	68.8		
R-18: small peptide 14-3-3 antagonist (Wang et al. 1999) capable of blocking the association of 14-3-3 proteins with Raf-1 (Biotin-PHCVPRDLSWLDLEANMCLP-OH; not fully specified; cysteine pairing not given here)		capable of blocking the association of 14-3-3 proteins with Raf-1	inhibits induction of MMP-1 expression
